What all share (type): cell-based
The subject of assay [1] is HepG2 cells. Kind of assay: Cell cycle analysis by PI flow cytometry. To be noted: HepG2, 48 h. On the procedure: HepG2 cells were harvested during log phase, digested, centrifuged and prepared into a single cell suspension; the number of the cells in the single cell suspension was counted; the cells were seeded into a 12-well plate, with 2×10^5 cells per well; three wells were used as a parallel control design; 16 hours after seeding, the cells were treated with the compounds in a concentration gradient for 48 h; the cells were digested with trypsin and resuspended; the number of the cells in the cell suspension was counted and diluted to 5×10^5 cells/mL; after the digestion was completed, the cell suspension was centrifuged; the supernatant was discarded; the pellet was washed twice with PBS (each time the mixture was centrifuged 2000 rpm for 5 min); the supernatant was discarded; a fixative comprising 980 μL of 70% cold ethanol and 20 μL of 5% BSA (a small amount of BSA reduces cellular stress and damage) was added to each microcentrifuge tube, so that the cells were fixed overnight at 4° C.; the fixative is discarded; the cells were washed three times in PBS to remove residual fixative (each time the mixture was centrifuged at 1000 rpm for 3 min); a DNA quantification kit is used to measure the content of DNA according to the following instruction (Suo Laibao, Beijing): each sample was incubated in 100 μL of RNase A at 37° C. for 30 min; 500 μL of PI (propidium iodide) was added to each sample; each sample was incubated at room temperature for 30 min in the dark; the cell cycle was analyzed by a flow cytometry and a ModFit software; and Graphpad prism 6.0 was used to estimate the percentage of a cell population in the different phases of the cell cycle.
(In general: Flow cytometry measures light scatter and fluorescence of single cells or particles in a stream.)

Another assay concerns CDC2 (gene name: CDK1). Kind of assay: qPCR of mRNA expression, CDK1. Conditions: HepG2, 10 μM, 24 h, normalised to β-actin. On the procedure:
(§1) HepG2 liver cancer cells were seeded in a 6-well plate, with 1×10^6 cells per well, and treated with the compound IY1214B-2 (in 0 and 10 μM concentrations) for 24 h; total RNA was extracted from the HepG2 liver cancer cells by a single-step TRIzol method; the concentration and purity of the total RNA was measured; the total RNA was used as a template; and complementary DNA (cDNA) was synthesized from the RNA template according to the instruction of a reverse transcription kit (Promega); sqRT-PCR and qPCR were used to quantify the expression of the genes CCNB1, CDK1 and SQSTM; and the gene ACTB was used as an internal reference gene for gene expression normalization.
(§2) A 20 μL reaction mix for qPCR contained:
(§3) Cycling conditions comprised:
(§4) After 40 cycles, the cycle threaded (CT) value of the β-actin gene was used as an initial value in comparison with the amount of the amplified product.

Another assay has as its system HepG2 liver cancer cells. In words: Annexin V-FITC/PI apoptosis flow cytometry. Conditions: HepG2, 48 h. As to the method:
The HepG2 cells were harvested during log phase, digested, centrifuged and prepared into a single cell suspension; the number of the cells in the cell suspension was counted; the cells were seeded into a 12-well plate, with 2×10^5 cells per well; three wells were used as a parallel control design; 16 hours after seeding, the cells were treated with the compounds in a concentration gradient for 48 h; the cells were digested with EDTA-free trypsin and resuspended; the number of the cells in the cell suspension was counted and diluted to 1×10^6 cells/mL; an annexin V apoptosis detection kit was used according to the following instruction (Suo Laibao, Beijing): the cells were washed twice with 1×PBS (each time the mixture was centrifuged at 6000 rpm for 0.5 min), washed once with 1×Binding buffer (and the mixture was centrifuged at 6000 rpm for 0.5 min); the supernatant was discarded; the cells were resuspended with 300 μL of 1×Binding buffer; 5 μL of Annexin V-FITC was added into each tube, and incubated in the dark for 10 min; 5 μL of PI was added into each tube and incubated in the dark for 5 min; and each tube was then inspected on a machine in the dark.

Assay [2] relates to Cyclin B1 (gene name: CCNB1). Kind of assay: qPCR of mRNA expression, CCNB1. To be noted: HepG2, 10 μM, 24 h, normalised to β-actin. On the procedure: as §1, §2, §3, §4
Background: Real-time PCR tracks product formation cycle by cycle.

A further assay deals with MDA-MB-468 cells. In words: MTT proliferation assay, MDA-MB-468. Conditions: Homo sapiens, MDA-MB-468, 48 h, MDA-MB-468, MTT. On the procedure:
Test results were recorded. A cell growth curve was drawn with the dosage of each compound as abscissa and the absorbance value as ordinate.
Background: Formazan colour is commonly taken as a measure of viable cells.

For a further assay, the system named is SMMC-7721 cells. Kind of assay: MTT proliferation assay, SMMC-7721. To be noted: Homo sapiens; SMMC-7721, MTT, 48 h. On the procedure: (§5) Difference cell lines HepG2, SMMC-7721, HuH-7, MCF-7, MDA-MB-231, MDA-MB-468, PC9, PC9-AR, PC9-GR, Jurkat and Molt-13 were harvested during log phase; the number of the cells in an original cell suspension was counted; the original cell suspension was diluted to a density of 5×10^4 cells/mL; for a 96-well plate, 100 uL of the cell suspension was transferred to each well; DMSO is used as solvent for negative control; (2E)-3-(6-bromo-2-pyridyl)-2-cyano-N-[(1S)-1-phenylethyl]-2-acrylamide (WP1066CAS: 857064-38-1, with a formula
(§6) or gefitinib was used as a positive control; the naphthylurea compound ID1120B-1 and the phosphate ID1120B-P thereof were diluted with DMSO and added into the 96-well plate to achieve a final concentration of 0.1, 0.3, 1, 3, 10, 30, 100 and 300 μmol/L in each well; the 96-well plate was incubated for 48 h; 10 μL of MTT solvent (5 mg/mL) was added into each well; the 96-well plate was incubated at 37° C. for 4 h; a culture supernatant was discarded; 150 μL of DMSO was added into each well; the 96-well plate was shaken for 10 min on a plate shaker; an optical density (OD) of the resulting product was measured at a wavelength of 490 nm by an ELISA reader. Test results were recorded. A cell growth curve was drawn with the dosage of each compound as abscissa and the absorbance value as ordinate. The half maximum inhibition rates (IC50 value) of the cancer cells were shown in Table 1, FIGS. 1A-1J and FIGS. 2A-2J.

The subject of a further assay is HuH-7 cells. In words: MTT proliferation assay, HuH-7. To be noted: Homo sapiens; HuH-7, MTT, 48 h. On the procedure:
as §5, §6

The next assay concerns p62 (gene name: SQSTM). Kind of assay: qPCR of mRNA expression, SQSTM. To be noted: HepG2, 10 μM, 24 h, normalised to β-actin. As to the method: as §1, §2, §3, §4
For assay [3], the system named is HepG2 cells. In words: MTT proliferation assay, HepG2. Conditions: Homo sapiens, HepG2, 48 h. As to the method:
as §5, §6

The mark [4] stands for this setting: compared with negative control (DMSO).
Setting [5] is: concentration of 8 μL (so in the source).

A word on the IC50: it is the concentration at which inhibition is half-maximal. Take `O=C(Nc1ccc(OC(F)(F)F)cc1)Nc1ccc(OCc2ccc(OCCN3CCCCC3)cc2)c2ccccc12` [IY1214B-2]: the “induction of cells in the G2/M phase” value in the assay with HepG2 cells [1] (setting [4]) is reported as “dramatically induce the liver cancer cells in the G2/M phase in a dose-dependent manner”. Further, in the assay on HepG2 cells [1] (setting [4]), the “percentage of cells in the G1/S phase” value is “significantly decrease the percentage of the liver cancer cells in the G1/S phase”. The “length of the G2 phase, % of the cell cycle, after treatment” value in the assay on HepG2 cells [1] (value reached after treatment (increase from DMSO control value)) turned out to be 21.71%. In addition, the “CDK1 mRNA level down-regulated by” value in the assay on CDC2 (gene name: CDK1) was 20-25%. Moreover, the induction of apoptosis result with HepG2 liver cancer cells (compared with the control group) is recorded as “induce apoptosis in the HepG2 liver cancer cells in a dose-dependent manner”. For the same molecule, the apoptosis rate in the assay on HepG2 liver cancer cells (setting [5]) is reported as 47.1%. Also, in the assay with HepG2 liver cancer cells (setting [5]), the “apoptosis rate, times higher than that of untreated wells” value was determined as 3.3 times. Further, in assay [2], the “CCNB1 mRNA level down-regulated by” value was 20-25%. For the same molecule, the concentration for half-maximal inhibition (IC50) was 3.85 µM in the assay with MDA-MB-468 cells, 31.4 µM with SMMC-7721 cells, 23.1 µM in the assay on HuH-7 cells and 3.85 µM in the assay on HepG2 cells [3]. In addition, the “SQSTM (p62) expression level up-regulated by” value in the assay on p62 (gene name: SQSTM) was found to be 2.5 times.

Values taken from patent US20230271928A1, “NAPHTHYLUREA COMPOUND, METHODS OF PREPARATION AND USE THEREOF” (Henan Radiomedical Science and Technology Co., Ltd., priority 2021, published 2023).
